Data published in ChEMBL document CHEMBL5113554, “Dactylosporolides: Glycosylated Macrolides from Dactylosporangium fulvum” (J Nat Prod, 2022).

Experiments:
[1] = system: Plasmodium falciparum; experiment: Antiparasitic activity against Plasmodium falciparum 3D7 infected in erythrocytes assessed as inhibition of parasite growth at 50 uM incubated for 48 hrs by SYBR Green I dye based fluorescence assay relative to control; format: functional; conditions: 3D7, Erythrocyte
[2] = system: Plasmodium falciparum; experiment: Antiparasitic activity against Plasmodium falciparum 3D7 infected in erythrocytes assessed as parasite growth inhibition incubated for 48 hrs by SYBR Green I dye based fluorescence assay; format: functional, organism-based; conditions: 3D7, Erythrocyte

CO[C@@H]1C[C@H](O[C@H]2C[C@@H]3C[C@H](O)[C@@H](C)[C@](O)(C[C@@H](O)CCCC(=O)O[C@H](C[C@@H](O)[C@H](C)[C@@H](O)[C@@H](C)[C@@H](O)CC(C)C)[C@@H](C)/C=C/C=C/[C@@H](O)C2)O3)O[C@H](C)[C@H]1O
inhibition at 50 µM [1]: 34% | IC50 [2]: > 50 µM

CO[C@H]1[C@H](O)C[C@H](O[C@H]2[C@H](O)C[C@H](O[C@H]3CC[C@H](O[C@@H](CC(C)C)[C@H](C)[C@H](O)[C@@H](C)[C@H](O)C[C@H]4OC(=O)CCC[C@H](O)C[C@]5(O)O[C@H](C[C@H](O[C@H]6C[C@@H](OC)[C@H](O)[C@@H](C)O6)C[C@H](O)/C=C/C=C/[C@@H]4C)C[C@H](O)[C@H]5C)O[C@@H]3C)O[C@@H]2C)O[C@@H]1C
inhibition at 50 µM [1]: 95.6% | IC50 [2]: 16 µM

CO[C@@H]1C[C@H](O[C@H]2C[C@@H]3C[C@H](O)[C@@H](C)[C@](O)(C[C@@H](O)CCCC(=O)O[C@H](C[C@@H](O)[C@H](C)[C@@H](O)[C@@H](C)[C@H](CC(C)C)O[C@H]4CC[C@H](O[C@H]5C[C@@H](O)[C@H](O[C@H]6C[C@@H](O)[C@H](O)[C@@H](C)O6)[C@@H](C)O5)[C@@H](C)O4)[C@@H](C)/C=C/C=C/[C@@H](O)C2)O3)O[C@H](C)[C@H]1O
inhibition at 50 µM [1]: 74.8% | IC50 [2]: 32 µM

CCN(CC)CCCC(C)Nc1ccnc2cc(Cl)ccc12 (configuration not stated) [CHLOROQUINE]
inhibition at 50 µM [1]: 100%
